Test system: severe traumatic brain injury (sTBI)
Assay: sTBI in rats, brain gene expression arrays and pathway analysis (Example 9)
Assay type: in vivo, Male Wistar rats
Parameters: key to z score, canonical pathway Dendritic Cell Maturation / z score, canonical pathway Adrenomedullin Signaling pathway / z score, canonical pathway Endothelin-1 Signaling / effect on canonical pathway Adrenomedullin Signaling pathway / effect on canonical pathway Endothelin-1 Signaling / effect on canonical pathway Dendritic Cell Maturation / Ingenuity canonical pathway Adrenomedullin signaling pathway, z score / Ingenuity canonical pathway FLT3 Signaling in Hematopoietic Progenitor Cells, z score / Ingenuity canonical pathway Opioid Signaling Pathway, z score / Ingenuity canonical pathway VDR/RXR Activation, z score / Ingenuity canonical pathway Neuropathic Pain Signaling In Dorsal Horn Neurons, z score / Ingenuity canonical pathway STAT3 Pathway, z score / Ingenuity canonical pathway IL-1 Signaling, z score / Ingenuity canonical pathway IL-6 Signaling, z score / Ingenuity canonical pathway NF-κB Signaling, z score / Ingenuity canonical pathway Role of NFAT in Cardiac Hypertrophy, z score / Ingenuity canonical pathway PPARα/RXRα Activation, z score: *: ambiguous effect
Procedure: The experimental protocol used in this study was approved by the Ethical Committee of the Catholic University of Rome, according to international standards and guidelines for animal care. Male Wistar rats of 300-350 g body weight were fed with standard laboratory diet and water ad libitum in a controlled environment. As the anesthetic mixture, the animals received 35 mg/kg b.w. ketamine and 0.25 mg/kg body weight midazolam by i.p. injection. Severe traumatic brain injury (sTBI) was induced by dropping a 450 g weight from 2 m height on to the rat head that had been protected by a metal disk previously fixed on the skull, according to the “weight drop” impact acceleration model (Marmarou et al., A new model of diffuse brain injury in rats. Part I: Pathophysiology and biomechanics. J Neurosurg. 1994; 80: 291-300). […] At the end of each period of treatment, rats were anesthetized again and then immediately sacrificed.
LMW-DS (Tikomed AB) was provided at a stock concentration of 20 mg/ml and was kept in a temperature-monitored refrigerator at 4° C. LMW-DS aliquots were diluted to the appropriate dosing concentration in sterile saline prior to delivery of a single subcutaneous injection.
Three doses of LMW-DS were administered subcutaneously 30 minutes post-TBI. The animals were sacrificed at 2 days post-TBI. The animals were divided into the following subgroups:
Three doses of LMW-DS were administered subcutaneously 30 minutes post-TBI. The animals were sacrificed at 7 days post-TBI. The animals were divided into the following subgroups:
An in vivo craniectomy was performed on all animals during anesthesia. After carefully removing the rat's skull, the brain was exposed and removed with a surgical spatula and quickly dropped in RNALater and preserved at 4° C. for further processing.
RNA extraction and array processing was carried out by SourceBioscience. The arrays used were the Agilent Rat expression arrays.
Statistical analysis was carried out using the Metaboanalyst software package. Gene expression changes of 10% with a p<0.05 were regarded as significant.
Pathway analysis of the differentially regulated genes was carried out using the Ingenuity pathway analysis package. The analysis was performed with special reference to pathways and molecular processes and diseases associated with neurodegenerative disease, including dementia, Alzheimer's disease, ALS, TBI and stroke, and with scarring and fibrosis, including glaucoma and normal pressure hydrocephalus (NPH) after subarachnoid haemorrhage.

[1] = 3 repeated doses of 15 mg/kg, 7 days
[2] = 2 days after TBI, TBI + 1 mg/kg LMW-DS
[3] = 2 days after TBI, TBI + 1 mg/kg LMW-DS, relative to control

low molecular weight dextran sulfate [LMW-DS]
genes with altered TBI-specific expression (1 mg/kg s.c. 30 min after injury, 2 days): 372 genes | genes with altered TBI-specific expression (1 mg/kg s.c. 30 min after injury, 7 days): 3602 genes | TBI-deregulated genes remaining deregulated relative to healthy controls (of 221) (1 mg/kg, 2 days): 22 genes | TBI-deregulated genes remaining deregulated, percent (1 mg/kg, 2 days): 10% | genes differing from healthy controls (1 mg/kg, 2 days): 209 genes | TBI-deregulated genes remaining deregulated relative to healthy controls (of 2741) (1 mg/kg, 7 days): 124 genes | TBI-deregulated genes remaining deregulated, percent (1 mg/kg, 7 days): 4.5% | genes differing from healthy controls (1 mg/kg, 7 days): 282 genes | genes with altered TBI-specific expression (5 mg/kg s.c. 30 min after TBI, 2 days): 702 genes | genes with altered TBI-specific expression (5 mg/kg s.c. 30 min after TBI, 7 days): 3852 genes | TBI-deregulated genes remaining deregulated relative to healthy controls (of 221) (5 mg/kg, 2 days): 51 genes | TBI-deregulated genes remaining deregulated, percent (5 mg/kg, 2 days): 23% | genes differing from healthy controls (5 mg/kg, 2 days): 258 genes | TBI-deregulated genes remaining deregulated relative to healthy controls (of 2741) (5 mg/kg, 7 days): 169 genes | TBI-deregulated genes remaining deregulated, percent (5 mg/kg, 7 days): 6.1% | genes differing from healthy controls (5 mg/kg, 7 days): 398 genes | genes with altered TBI-specific expression (15 mg/kg s.c. 30 min after TBI, 2 days): 247 genes | genes with altered TBI-specific expression (15 mg/kg s.c. 30 min after TBI, 7 days): 3901 genes | TBI-deregulated genes remaining deregulated relative to healthy controls (of 221) (15 mg/kg, 2 days): 19 genes | TBI-deregulated genes remaining deregulated, percent (15 mg/kg, 2 days): 8.5% | genes differing from healthy controls (15 mg/kg, 2 days): 47 genes | TBI-deregulated genes remaining deregulated relative to healthy controls (of 2741) (15 mg/kg, 7 days): 85 genes | TBI-deregulated genes remaining deregulated, percent (15 mg/kg, 7 days): 3.1% | genes differing from healthy controls (15 mg/kg, 7 days): 158 genes | TBI-deregulated genes remaining deregulated relative to healthy controls (of 2741) [1]: 116 genes | TBI-deregulated genes remaining deregulated, percent [1]: 4.25% | genes differing from healthy controls [1]: 234 genes | effect on canonical pathway Adrenomedullin Signaling pathway [2]: * | effect on canonical pathway Dendritic Cell Maturation [2]: * | effect on canonical pathway Endothelin-1 Signaling [2]: * | effect on canonical pathway IL-1 Signaling [2]: Inhibited | effect on canonical pathway Osteoarthritis Pathway [2]: Inhibited | effect on canonical pathway Role of NFAT in Regulation of the Immune Response [2]: Activated | z score, Abdominal cancer [2]: −1.538 | z score, Abdominal carcinoma [2]: −1.715 | z score, Abdominal neoplasm [2]: −0.154 | z score, Activation of blood cells [2]: 0.086 | z score, Activation of cells [2]: 0.836 | z score, Activation of leukocytes [2]: 0.086 | z score, Activation of lymphocytes [2]: −1.158 | z score, Adhesion of tumor cell lines [2]: 2.074 | z score, Apoptosis [2]: −0.337 | z score, Apoptosis of muscle cells [2]: 0.041 | z score, Behavior [2]: 1.334 | z score, Binding of tumor cell lines [2]: 2.397 | z score, Carcinoma [2]: −0.127 | z score, Cell death [2]: −0.793 | z score, Cell death of blood cells [2]: 1.082 | z score, Cell death of immune cells [2]: 1.001 | z score, Cell movement [2]: 1.948 | z score, Cell movement of muscle cells [2]: −0.26 | z score, Cell movement of vascular smooth muscle cells [2]: −0.588 | z score, Cell proliferation of T lymphocytes [2]: −1.097 | z score, Cellular homeostasis [2]: 0.19 | z score, Concentration of prostaglandin [2]: −0.911 | z score, Development of connective tissue cells [2]: −0.332 | z score, Differentiation of bone cells [2]: −0.341 | z score, Differentiation of connective tissue cells [2]: 0.73 | z score, Differentiation of hematopoietic progenitor cells [2]: 0.487 | z score, Differentiation of osteoclasts [2]: −0.223 | z score, Digestive organ tumor [2]: −0.604 | z score, Experimentally-induced arthritis [2]: −0.816 | z score, Extracranial solid tumor [2]: 0.056 | z score, Genital tumor [2]: 0.13 | z score, Incidence of tumor [2]: −1.131 | z score, Inflammation of absolute anatomical region [2]: −1.359 | z score, Inflammation of body cavity [2]: −1.757 | z score, Inflammation of joint [2]: −0.053 | z score, Inflammation of organ [2]: −1.295 | z score, Inflammatory response [2]: 1.159 | z score, Interaction of mononuclear leukocytes [2]: 1.626 | z score, Leukocyte migration [2]: 1.296 | z score, Leukopoiesis [2]: 1.185 | z score, Locomotion [2]: −0.039 | z score, Lymphopoiesis [2]: 0.583 | z score, Malignant solid tumor [2]: −0.562 | z score, Migration of cells [2]: 2.093 | z score, Necrosis [2]: −0.361 | z score, Non-hematologic malignant neoplasm [2]: −0.243 | z score, Pelvic tumor [2]: −0.651 | z score, Proliferation of blood cells [2]: −1.083 | z score, Proliferation of lymphatic system cells [2]: −1.112 | z score, Proliferation of lymphocytes [2]: −0.852 | z score, Quantity of blood cells [2]: −1.479 | z score, Quantity of bone [2]: −1.985 | z score, Quantity of cells [2]: −0.765 | z score, Quantity of connective tissue cells [2]: 0.637 | z score, Quantity of leukocytes [2]: −1.163 | z score, Quantity of lymphatic system cells [2]: −0.701 | z score, Quantity of phagocytes [2]: −2.061 | z score, Rheumatic Disease [2]: −0.053 | z score, Size of body [2]: −4.771 | z score, Solid tumor [2]: −0.186 | z score, Survival of organism [2]: −0.095 | z score, Synthesis of hormone [2]: 0.977 | z score, Thrombus [2]: 1 | z score, Transcription of RNA [2]: −2.488 | z score, Transport of molecule [2]: 2.421 | z score, canonical pathway Adrenomedullin Signaling pathway [3]: * | z score, canonical pathway Dendritic Cell Maturation [3]: * | z score, canonical pathway Endothelin-1 Signaling [3]: * | z score, canonical pathway IL-1 Signaling [3]: −1 | z score, canonical pathway Osteoarthritis Pathway [3]: −1.342 | z score, canonical pathway Role of NFAT in Regulation of the Immune Response [3]: 0.378
